Literature values as cited in article PMC8158804 (ACS Omega, 2021).

Settings: critical aggregation concentration, fluorimetry, pure water

Substance	CAC (−log M)
AcIIIKGVPGVGVPGVGKNH2 [IK-K16]	3.03 −log M
RFRFRF [[RF]3]	2.64 −log M
AcKGVPGVGKNH2 [K-K8]	2.10 −log M
V6K2GRGDS	4.83 −log M
RFRFRFRF [[RF]4]	3.52 −log M
RFRFRFRFRF [[RF]5]	4.70 −log M
AcIIIKGVPGVGKNH2 [IK-K11]	2.58 −log M
RFRF [[RF]2]	4.40 −log M
AcIIIGVPGVGVPGVGKKNH2 [IKK16]	3.13 −log M
AcIIIGVPGVGKKNH2 [IKK11]	2.66 −log M
AcGVPGVGKKNH2 [KK8]	2.10 −log M
AcGAAVILRRNH2	1.52 −log M

Settings: critical aggregation concentration, conductivity, pure water

Substance	CAC (−log M)
Ac-GAVILEE-NH2	3.10 −log M
AcLIIKNH2 [LI2K]	2.99 −log M
Ac-GAVILEE	3.15 −log M
